Assays:
[1] = system: DOCA/sodium chloride-loaded hypertension model; experiment: Ameliorative effect on a renal disorder in the DOCA/sodium chloride-loaded hypertension model (kidney histopathology); format: in vivo, male WKY rats; settings: for Glomerulosclerosis score / Tubular disorder score, Cortical side / Tubular disorder score, Medullary side: 15 weeks old, score 0 to 4, mean±standard error, n=6
Procedure: Deoxycorticosterone acetate (DOCA)/sodium chloride-loaded hypertension model was prepared by the following procedure. 6 Week-old male WKY rats (WKY/Izm, SPF grade, produced by Funabashi Farm Co., Ltd.) were subjected to unilateral nephrectomy, diet containing 4% sodium chloride (4% NaCl-containing FR-2, manufactured by Funabashi Farm Co., Ltd.) was given from 7 weeks old by free feeding, and DOCA was administered subcutaneously once a week. DOCA was suspended in a 0.5% carboxymethylcellulose solution (20 mg/mL) and administered in an amount corresponding to 1 mL/kg. The group to which DOCA was not administered was designated as DOCA non-administration group and the group to which DOCA was administered was designated as DOCA administration group.
At 11 weeks old, some of the animals in the DOCA non-administration group were dissected and the other animals in the DOCA non-administration group were designated as normal group (Group 1). At the same time, some of the animals in the DOCA administration group were also dissected, and the others of the DOCA administration group were divided into the following groups (Groups 2 to 4).
Group 1: normal group, n=6 animals
Group 2; control group, n=6 animals
Group 3; compound (Ia) administration group [compound (Ia) 3 mg/kg], n=6 animals
Group 4: DOCA administration interruption+compound (Ia) administration group [compound (Ia) 3 mg/kg], n=6 animals
The dosing schedule of test drugs for each group after 11 weeks is as follows.
To Group 1, oral administration of a 0.5% methylcellulose solution was continued for 4 weeks. To Group 2, oral administration of 0.5% methylcellulose solution and subcutaneous administration (once a week) of DOCA were continued for 4 weeks. To Group 3, oral administration of compound (Ia) suspended in 0.5% methylcellulose solution (2 mL/kg) and subcutaneous administration (once a week) of DOCA were continued for 4 weeks.
To Group 4, only oral administration of compound (Ia) suspended in 0.5% methylcellulose solution (2 mL/kg) was continued for 4 weeks.
At the end of 4 weeks of administration of the test drug or the like (at the age of 15 weeks old), all animals were dissected.
At 7, 11, 13 and 15 weeks old, 24-hour urine collections were conducted using metabolic cages (2100-R, Watanabe Isolator Systems Co., Ltd.). Daily urinary protein excretion was calculated from the urine protein concentration (measured by BiOLiS 24i premium [Tokyo Boeki Medisys Inc.]) and urine volume.
At the time of dissection at 11 and 15 weeks old, the kidneys were isolated and weighed, and the kidney weight per body weight was calculated.
Furthermore, histopathological sections were prepared from a part of the isolated kidneys, and histopathological evaluation (scoring of glomerulosclerosis and tubular disorder) was conducted. For glomerulosclerosis, 30 glomeruli were selected at random for each sample, and the degree of glomerulosclerosis of each sample was quantified on the basis of 5 stages (0 to 4) to determine an average value of 30 values, which was used as a score of the sample (Uehara Y, et al., Hypertens. Res. 1992; 15, pp 17-26). For tubular disorder, for each of the cortical and medullary sides, 10 fields of view were selected for each sample, the degree of tubular disorder was quantified on the basis of 5 stages (0 to 4) to determine the average value of values for each 10 fields of view, which was used as a score of the sample (Uehara Y, et al., Hypertens. Res. 1992; 15, pp 17-26). Results are shown in Table 3 (each numerical value in the table represents the mean±standard error).

[2] = system: patients with type 2 diabetes mellitus having albumin urine; experiment: Phase II randomized, placebo controlled, double-blind clinical study of compound (Ia) (Example 3); format: in vivo, human; settings: for Reduction rate of UACR (geometric mean) from baseline at the end of dosing / Remission rate of UACR: 12 weeks; for Remission rate of UACR: UACR <30 mg/g Cr at 11 and 12 weeks and decreased by 30% or more
Procedure: A clinical study targeted to patients with type 2 diabetes mellitus having albumin urine was conducted to evaluate the efficacy and safety of the like of compound
(Ia). This study is a Phase II randomized, placebo controlled, double-blind comparison study. Each of the patients was subjected to a washout period of 4 to 12 weeks followed by treatment comprising administrating placebo or compound (Ia) (0.625 mg, 1.25 mg, 2.5 mg, 5 mg) once a day over a treatment period of 12 weeks.
365 Patients in Japan who met the following criteria entered this study, and an efficacy and safety analysis set included 358 cases.
1. The patient is with type 2 diabetes mellitus; 2. The patient is 20 years old or more at the time of consent; 3. Urine albumin/creatinine ratio (UACR) is 45 mg/g Cr or more and less than 300 mg/g Cr; 4. Estimated glomerular filtration rate calculated with serum creatinine (eGFRcreat) is 30 mL/min/1.73 m^2 or more; and 5. The patient has been subjected to treatment with an angiotensin-converting enzyme inhibitor or an angiotensin II receptor antagonist (and optionally a calcium antagonist) since at least 3 months before the start of treatment.
The patient was followed up for approximately 6 weeks after the end of dosing, and evaluated for change in UACR from baseline, remission rate of UACR and numerical value of eGFR as well as safety.
Remission rate of UACR (%)=(number of subjects in remission÷number of all subjects to be analyzed)×100

[3] = Group 3: 3 mg/kg oral for 4 weeks with continued DOCA
[4] = Group 4: DOCA administration interruption + 3 mg/kg oral for 4 weeks

Structure (SMILES): Cc1c(C(=O)Nc2ccc(S(C)(=O)=O)cc2)cn(CCO)c1-c1ccccc1C(F)(F)F (atropisomer, axis not shown) [compound (Ia), (S)-1-(2-hydroxyethyl)-4-methyl-N-[4-(methylsulfonyl)phenyl]-5-[2-(trifluoromethyl)phenyl]-1H-pyrrole-3-carboxamide]
- Effect on renal disorders (proteinuria, renal hypertrophy, glomerulosclerosis and tubular disorder) ([1]; 3 mg/kg oral for 4 weeks, disease model animals): excellent ameliorative effect
- Glomerulosclerosis score [1, 3]: 0.29 ± 0.05
- Tubular disorder score, Cortical side [1, 3]: 1.02 ± 0.07
- Tubular disorder score, Medullary side [1, 3]: 1.73 ± 0.04
- Effect on renal disorders versus normal group [1, 4]: ameliorated almost to the normal group level
- Glomerulosclerosis score [1, 4]: 0.20 ± 0.04
- Tubular disorder score, Cortical side [1, 4]: 0.67 ± 0.06
- Tubular disorder score, Medullary side [1, 4]: 1.42 ± 0.11
- Reduction rate of UACR (geometric mean) from baseline at the end of dosing ([2]; 0.625 mg once a day): 21%
- Remission rate of UACR ([2]; 0.625 mg once a day): 7.5%
- Reduction rate of UACR (geometric mean) from baseline at the end of dosing ([2]; 1.25 mg once a day): 37%
- Remission rate of UACR ([2]; 1.25 mg once a day): 12.3%
- Reduction rate of UACR (geometric mean) from baseline at the end of dosing ([2]; 2.5 mg once a day): 50%
- Remission rate of UACR ([2]; 2.5 mg once a day): 21.2%
- Reduction rate of UACR (geometric mean) from baseline at the end of dosing ([2]; 5 mg once a day): 56%
- Remission rate of UACR ([2]; 5 mg once a day): 21.1%
- Therapeutic effect (UACR reducing effect and increase in remission rate) ([2]; patients without sufficient effect on ACE inhibitor or angiotensin II receptor antagonist (optionally calcium antagonist)): excellent therapeutic effect
